According to publication PMC5392334, “Discovery and characterization of a novel irreversible EGFR mutants selective and potent kinase inhibitor CHMFL-EGFR-26 with a distinct binding mode” (Oncotarget, 2017):

How the values were obtained:
DMPK2 = molecular target: T1, DMPK2 (Homo sapiens, UniProt Q6DT37); experiment: KinomeScan; type: binding; conditions: read-out: % control
T1 construct: purchased DiscoveRx KINOMEscan

KIT(V559D,V654A) = molecular target: T2, KIT(V559D,V654A) (Homo sapiens, UniProt P10721, V559D/V654A); experiment: KinomeScan; type: binding; conditions: read-out: % control
T2 construct: purchased DiscoveRx KINOMEscan

BMPR1B = molecular target: T3, BMPR1B (Homo sapiens, UniProt O00238); experiment: KinomeScan; type: binding; conditions: read-out: % control
T3 construct: purchased DiscoveRx KINOMEscan

MET(Y1235D) = molecular target: T4, MET(Y1235D) (Homo sapiens, UniProt P08581, Y1235D); experiment: KinomeScan; type: binding; conditions: read-out: % control
T4 construct: purchased DiscoveRx KINOMEscan

ERK3 = molecular target: T5, ERK3 (Homo sapiens, UniProt Q16659); experiment: KinomeScan; type: binding; conditions: read-out: % control
T5 construct: purchased DiscoveRx KINOMEscan

ADCK3 = molecular target: T6, ADCK3 (Homo sapiens, UniProt Q8NI60); experiment: KinomeScan; type: binding; conditions: read-out: % control
T6 construct: purchased DiscoveRx KINOMEscan

AKT1 = molecular target: T7, AKT1 (Homo sapiens, UniProt P31749); experiment: KinomeScan; type: binding; conditions: read-out: % control
T7 construct: purchased DiscoveRx KINOMEscan

PFPK5(P.falciparum) = molecular target: T8, PFPK5(P.falciparum) (Plasmodium falciparum, UniProt P61075); experiment: KinomeScan; type: binding; conditions: read-out: % control
T8 construct: purchased DiscoveRx KINOMEscan

STK33 = molecular target: T9, STK33 (Homo sapiens, UniProt Q9BYT3); experiment: KinomeScan; type: binding; conditions: read-out: % control
T9 construct: purchased DiscoveRx KINOMEscan

TLK2 = molecular target: T10, TLK2 (Homo sapiens, UniProt Q86UE8); experiment: KinomeScan; type: binding; conditions: read-out: % control
T10 construct: purchased DiscoveRx KINOMEscan

ICK = molecular target: T11, ICK (Homo sapiens, UniProt Q9UPZ9); experiment: KinomeScan; type: binding; conditions: read-out: % control
T11 construct: purchased DiscoveRx KINOMEscan

EPHB6 = molecular target: T12, EPHB6 (Homo sapiens, UniProt O15197); experiment: KinomeScan; type: binding; conditions: read-out: % control
T12 construct: purchased DiscoveRx KINOMEscan

PLK4 = molecular target: T13, PLK4 (Homo sapiens, UniProt O00444); experiment: KinomeScan; type: binding; conditions: read-out: % control
T13 construct: purchased DiscoveRx KINOMEscan

CAMK2A = molecular target: T14, CAMK2A (Homo sapiens, UniProt Q9UQM7); experiment: KinomeScan; type: binding; conditions: read-out: % control
T14 construct: purchased DiscoveRx KINOMEscan

HIPK3 = molecular target: T15, HIPK3 (Homo sapiens, UniProt Q9H422); experiment: KinomeScan; type: binding; conditions: read-out: % control
T15 construct: purchased DiscoveRx KINOMEscan

EPHB3 = molecular target: T16, EPHB3 (Homo sapiens, UniProt P54753); experiment: KinomeScan; type: binding; conditions: read-out: % control
T16 construct: purchased DiscoveRx KINOMEscan

RIPK4 = molecular target: T17, RIPK4 (Homo sapiens, UniProt P57078); experiment: KinomeScan; type: binding; conditions: read-out: % control
T17 construct: purchased DiscoveRx KINOMEscan

EPHA3 = molecular target: T18, EPHA3 (Homo sapiens, UniProt P29320); experiment: KinomeScan; type: binding; conditions: read-out: % control
T18 construct: purchased DiscoveRx KINOMEscan

DDR1 = molecular target: T19, DDR1 (Homo sapiens, UniProt Q08345); experiment: KinomeScan; type: binding; conditions: read-out: % control
T19 construct: purchased DiscoveRx KINOMEscan

FLT3-autoinhibited = molecular target: T20, FLT3-autoinhibited (Homo sapiens, UniProt P36888); experiment: KinomeScan; type: binding; conditions: read-out: % control
T20 construct: purchased DiscoveRx KINOMEscan

ASK2 = molecular target: T21, ASK2 (Homo sapiens, UniProt O95382); experiment: KinomeScan; type: binding; conditions: read-out: % control
T21 construct: purchased DiscoveRx KINOMEscan

CSNK2A2 = molecular target: T22, CSNK2A2 (Homo sapiens, UniProt P19784); experiment: KinomeScan; type: binding; conditions: read-out: % control
T22 construct: purchased DiscoveRx KINOMEscan

[1] = molecular target: T23, EGFR(L747-E749del, A750P) (Homo sapiens, UniProt P00533, A750P/DEL747-749); experiment: KinomeScan; type: binding; conditions: read-out: % control
T23 construct: purchased DiscoveRx KINOMEscan

[2] = molecular target: T24, RSK1(Kin.Dom.2-C-terminal) (Homo sapiens, UniProt Q15418); experiment: KinomeScan; type: binding; conditions: read-out: % control
T24 construct: RSK1(Kin.Dom.2-C-terminal); purchased DiscoveRx KINOMEscan

PFTK1 = molecular target: T25, PFTK1 (Homo sapiens, UniProt O94921); experiment: KinomeScan; type: binding; conditions: read-out: % control
T25 construct: purchased DiscoveRx KINOMEscan

TSSK3 = molecular target: T26, TSSK3 (Homo sapiens, UniProt Q96PN8); experiment: KinomeScan; type: binding; conditions: read-out: % control
T26 construct: purchased DiscoveRx KINOMEscan

MYO3B = molecular target: T27, MYO3B (Homo sapiens, UniProt Q8WXR4); experiment: KinomeScan; type: binding; conditions: read-out: % control
T27 construct: purchased DiscoveRx KINOMEscan

ACVR1 = molecular target: T28, ACVR1 (Homo sapiens, UniProt Q04771); experiment: KinomeScan; type: binding; conditions: read-out: % control
T28 construct: purchased DiscoveRx KINOMEscan

MAPKAPK5 = molecular target: T29, MAPKAPK5 (Homo sapiens, UniProt Q8IW41); experiment: KinomeScan; type: binding; conditions: read-out: % control
T29 construct: purchased DiscoveRx KINOMEscan

CHL = experiment: Anti-proliferation, normal cells (CellTiter-Glo); conditions: Cricetulus griseus, 72 h
Method: Cells were grown in 96-well culture plates (2500-3000/well). For adherent cell lines, compounds of various concentrations were added into the plates after cells were cultured for 12 hours. Cell proliferation was determined after treatment with compounds for 72 hours. Cell viability was measured using the CellTiter–Glo assay (Promega, USA) according to the manufacturer's instructions, and luminescence was measured in a multi-label reader (Envision, PerkinElmer, USA). Data were normalized to control groups (DMSO) and represented by the mean of three independent measurements with standard error <20%. GI50 values were calculated using Prism 5.0 (GraphPad Software, San Diego, CA).

HIPK2 = molecular target: T30, HIPK2 (Homo sapiens, UniProt Q9H2X6); experiment: KinomeScan; type: binding; conditions: read-out: % control
T30 construct: purchased DiscoveRx KINOMEscan

SNARK = molecular target: T31, SNARK (Homo sapiens, UniProt Q9H093); experiment: KinomeScan; type: binding; conditions: read-out: % control
T31 construct: purchased DiscoveRx KINOMEscan

KIT-autoinhibited = molecular target: T32, KIT-autoinhibited (Homo sapiens, UniProt P10721); experiment: KinomeScan; type: binding; conditions: read-out: % control
T32 construct: purchased DiscoveRx KINOMEscan

NIM1 = molecular target: T33, NIM1 (Homo sapiens, UniProt Q8IY84); experiment: KinomeScan; type: binding; conditions: read-out: % control
T33 construct: purchased DiscoveRx KINOMEscan

LYN = molecular target: T34, LYN (Homo sapiens, UniProt P07948); experiment: KinomeScan; type: binding; conditions: read-out: % control
T34 construct: purchased DiscoveRx KINOMEscan

CDKL3 = molecular target: T35, CDKL3 (Homo sapiens, UniProt Q8IVW4); experiment: KinomeScan; type: binding; conditions: read-out: % control
T35 construct: purchased DiscoveRx KINOMEscan

CDK7 = molecular target: T36, CDK7 (Homo sapiens, UniProt P50613); experiment: KinomeScan; type: binding; conditions: read-out: % control
T36 construct: purchased DiscoveRx KINOMEscan

FLT3(ITD,F691L) = experiment: KinomeScan; type: binding; conditions: 1μM
CAMK1D = molecular target: T37, CAMK1D (Homo sapiens, UniProt Q8IU85); experiment: KinomeScan; type: binding; conditions: read-out: % control
T37 construct: purchased DiscoveRx KINOMEscan

YES = molecular target: T38, YES (Homo sapiens, UniProt P07947); experiment: KinomeScan; type: binding; conditions: read-out: % control
T38 construct: purchased DiscoveRx KINOMEscan

SRPK1 = molecular target: T39, SRPK1 (Homo sapiens, UniProt Q96SB4); experiment: KinomeScan; type: binding; conditions: read-out: % control
T39 construct: purchased DiscoveRx KINOMEscan

HASPIN = molecular target: T40, HASPIN (Homo sapiens, UniProt Q8TF76); experiment: KinomeScan; type: binding; conditions: read-out: % control
T40 construct: purchased DiscoveRx KINOMEscan

CSNK1A1L = molecular target: T41, CSNK1A1L (Homo sapiens, UniProt Q8N752); experiment: KinomeScan; type: binding; conditions: read-out: % control
T41 construct: purchased DiscoveRx KINOMEscan
T41 sequence (Q8N752 whole entry): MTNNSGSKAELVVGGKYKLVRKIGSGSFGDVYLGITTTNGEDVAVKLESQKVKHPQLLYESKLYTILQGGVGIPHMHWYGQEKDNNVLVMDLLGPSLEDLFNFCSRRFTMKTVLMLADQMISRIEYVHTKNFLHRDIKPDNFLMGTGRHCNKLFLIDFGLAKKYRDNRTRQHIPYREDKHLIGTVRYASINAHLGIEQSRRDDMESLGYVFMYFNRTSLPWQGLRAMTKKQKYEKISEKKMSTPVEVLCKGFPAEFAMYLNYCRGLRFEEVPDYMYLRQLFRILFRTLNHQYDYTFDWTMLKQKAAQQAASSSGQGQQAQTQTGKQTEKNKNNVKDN

T22 sequence (P19784 whole entry): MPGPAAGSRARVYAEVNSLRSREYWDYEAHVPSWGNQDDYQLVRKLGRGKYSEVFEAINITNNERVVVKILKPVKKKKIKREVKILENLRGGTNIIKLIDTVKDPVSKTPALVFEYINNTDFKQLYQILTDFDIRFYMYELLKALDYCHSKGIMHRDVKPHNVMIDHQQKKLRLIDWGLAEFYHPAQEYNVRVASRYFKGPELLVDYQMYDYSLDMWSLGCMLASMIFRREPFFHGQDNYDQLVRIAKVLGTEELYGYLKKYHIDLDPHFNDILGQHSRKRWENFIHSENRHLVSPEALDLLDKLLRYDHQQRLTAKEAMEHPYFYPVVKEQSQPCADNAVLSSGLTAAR
T11 sequence (Q9UPZ9 whole entry): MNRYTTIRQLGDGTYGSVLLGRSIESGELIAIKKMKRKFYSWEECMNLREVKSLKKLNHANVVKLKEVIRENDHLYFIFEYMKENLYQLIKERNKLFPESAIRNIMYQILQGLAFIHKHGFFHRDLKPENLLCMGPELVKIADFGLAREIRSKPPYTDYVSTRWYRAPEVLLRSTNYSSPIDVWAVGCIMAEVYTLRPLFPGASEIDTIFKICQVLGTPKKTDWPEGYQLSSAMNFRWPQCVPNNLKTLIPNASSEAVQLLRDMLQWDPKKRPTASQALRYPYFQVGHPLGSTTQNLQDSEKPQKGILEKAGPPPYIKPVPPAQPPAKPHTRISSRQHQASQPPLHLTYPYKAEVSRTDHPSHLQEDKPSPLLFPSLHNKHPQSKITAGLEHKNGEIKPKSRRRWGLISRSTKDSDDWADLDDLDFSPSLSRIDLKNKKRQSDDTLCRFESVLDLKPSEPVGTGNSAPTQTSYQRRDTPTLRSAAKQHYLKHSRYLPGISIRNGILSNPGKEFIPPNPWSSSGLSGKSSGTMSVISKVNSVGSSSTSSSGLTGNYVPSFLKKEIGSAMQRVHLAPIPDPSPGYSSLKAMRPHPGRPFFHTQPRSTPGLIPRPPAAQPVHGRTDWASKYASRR
T38 sequence (P07947 whole entry): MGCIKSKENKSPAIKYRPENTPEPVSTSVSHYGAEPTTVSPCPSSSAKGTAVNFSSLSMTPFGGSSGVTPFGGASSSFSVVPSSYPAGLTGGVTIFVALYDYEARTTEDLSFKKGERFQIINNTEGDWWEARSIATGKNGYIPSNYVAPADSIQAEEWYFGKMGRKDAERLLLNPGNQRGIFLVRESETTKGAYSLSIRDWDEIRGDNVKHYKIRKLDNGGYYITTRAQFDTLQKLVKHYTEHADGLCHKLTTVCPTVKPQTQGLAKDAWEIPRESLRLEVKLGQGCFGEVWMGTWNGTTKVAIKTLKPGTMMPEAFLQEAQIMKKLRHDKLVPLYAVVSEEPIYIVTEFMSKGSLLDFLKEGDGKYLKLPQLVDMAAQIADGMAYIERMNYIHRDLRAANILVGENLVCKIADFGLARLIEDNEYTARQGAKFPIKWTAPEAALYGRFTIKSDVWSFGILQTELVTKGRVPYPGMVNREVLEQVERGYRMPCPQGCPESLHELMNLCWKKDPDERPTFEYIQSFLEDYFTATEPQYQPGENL
T12 sequence (O15197 32-1021): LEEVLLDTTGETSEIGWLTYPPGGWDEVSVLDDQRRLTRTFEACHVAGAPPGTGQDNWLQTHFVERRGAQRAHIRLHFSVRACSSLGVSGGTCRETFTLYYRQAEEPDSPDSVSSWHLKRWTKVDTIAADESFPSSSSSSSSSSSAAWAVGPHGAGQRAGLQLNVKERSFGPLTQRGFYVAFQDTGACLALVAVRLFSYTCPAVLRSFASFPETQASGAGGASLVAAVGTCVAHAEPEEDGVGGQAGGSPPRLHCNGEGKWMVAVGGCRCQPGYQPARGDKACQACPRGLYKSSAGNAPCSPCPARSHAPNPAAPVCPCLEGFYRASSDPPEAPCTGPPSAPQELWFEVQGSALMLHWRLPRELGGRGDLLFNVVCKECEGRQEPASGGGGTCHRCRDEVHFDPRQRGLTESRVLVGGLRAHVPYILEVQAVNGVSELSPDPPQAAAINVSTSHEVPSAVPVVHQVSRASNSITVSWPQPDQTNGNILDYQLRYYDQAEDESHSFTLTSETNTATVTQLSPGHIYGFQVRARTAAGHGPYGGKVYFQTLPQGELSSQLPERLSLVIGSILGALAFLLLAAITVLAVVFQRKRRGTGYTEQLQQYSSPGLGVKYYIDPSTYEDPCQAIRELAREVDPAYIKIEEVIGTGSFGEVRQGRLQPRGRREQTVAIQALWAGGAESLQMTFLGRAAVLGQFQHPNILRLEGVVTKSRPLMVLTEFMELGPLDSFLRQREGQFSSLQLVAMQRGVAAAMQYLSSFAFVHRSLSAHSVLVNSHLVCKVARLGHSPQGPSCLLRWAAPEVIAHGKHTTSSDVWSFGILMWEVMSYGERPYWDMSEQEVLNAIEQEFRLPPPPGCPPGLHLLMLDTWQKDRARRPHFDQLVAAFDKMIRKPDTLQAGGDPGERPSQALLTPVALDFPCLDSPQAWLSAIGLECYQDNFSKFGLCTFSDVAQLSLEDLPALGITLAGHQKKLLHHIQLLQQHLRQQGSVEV
T14 sequence (Q9UQM7 whole entry): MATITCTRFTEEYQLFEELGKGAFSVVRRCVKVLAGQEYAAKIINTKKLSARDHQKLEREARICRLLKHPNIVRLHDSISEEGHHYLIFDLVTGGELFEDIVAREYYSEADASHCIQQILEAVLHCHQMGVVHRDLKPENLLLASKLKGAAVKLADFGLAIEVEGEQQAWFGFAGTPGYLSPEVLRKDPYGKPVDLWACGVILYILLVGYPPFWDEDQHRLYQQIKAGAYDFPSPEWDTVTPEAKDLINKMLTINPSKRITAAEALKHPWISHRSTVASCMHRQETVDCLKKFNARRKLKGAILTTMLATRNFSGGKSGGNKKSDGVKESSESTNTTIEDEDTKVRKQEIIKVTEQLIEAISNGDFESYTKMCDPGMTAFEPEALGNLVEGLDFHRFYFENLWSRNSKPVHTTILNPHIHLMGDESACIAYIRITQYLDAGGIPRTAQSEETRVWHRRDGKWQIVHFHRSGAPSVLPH
T9 sequence (Q9BYT3 whole entry): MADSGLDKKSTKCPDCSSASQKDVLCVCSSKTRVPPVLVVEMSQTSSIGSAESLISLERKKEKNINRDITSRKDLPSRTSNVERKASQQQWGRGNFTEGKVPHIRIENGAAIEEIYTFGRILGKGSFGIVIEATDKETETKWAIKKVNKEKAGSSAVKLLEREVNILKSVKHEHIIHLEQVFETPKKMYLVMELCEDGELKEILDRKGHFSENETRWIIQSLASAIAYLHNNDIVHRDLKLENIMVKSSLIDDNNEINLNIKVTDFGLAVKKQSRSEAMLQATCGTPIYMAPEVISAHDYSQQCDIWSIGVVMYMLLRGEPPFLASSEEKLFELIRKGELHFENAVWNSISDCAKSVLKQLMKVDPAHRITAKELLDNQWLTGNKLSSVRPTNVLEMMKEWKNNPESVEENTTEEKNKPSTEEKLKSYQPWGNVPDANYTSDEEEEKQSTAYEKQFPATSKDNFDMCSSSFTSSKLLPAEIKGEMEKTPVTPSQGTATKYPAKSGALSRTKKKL
T39 sequence (Q96SB4 whole entry): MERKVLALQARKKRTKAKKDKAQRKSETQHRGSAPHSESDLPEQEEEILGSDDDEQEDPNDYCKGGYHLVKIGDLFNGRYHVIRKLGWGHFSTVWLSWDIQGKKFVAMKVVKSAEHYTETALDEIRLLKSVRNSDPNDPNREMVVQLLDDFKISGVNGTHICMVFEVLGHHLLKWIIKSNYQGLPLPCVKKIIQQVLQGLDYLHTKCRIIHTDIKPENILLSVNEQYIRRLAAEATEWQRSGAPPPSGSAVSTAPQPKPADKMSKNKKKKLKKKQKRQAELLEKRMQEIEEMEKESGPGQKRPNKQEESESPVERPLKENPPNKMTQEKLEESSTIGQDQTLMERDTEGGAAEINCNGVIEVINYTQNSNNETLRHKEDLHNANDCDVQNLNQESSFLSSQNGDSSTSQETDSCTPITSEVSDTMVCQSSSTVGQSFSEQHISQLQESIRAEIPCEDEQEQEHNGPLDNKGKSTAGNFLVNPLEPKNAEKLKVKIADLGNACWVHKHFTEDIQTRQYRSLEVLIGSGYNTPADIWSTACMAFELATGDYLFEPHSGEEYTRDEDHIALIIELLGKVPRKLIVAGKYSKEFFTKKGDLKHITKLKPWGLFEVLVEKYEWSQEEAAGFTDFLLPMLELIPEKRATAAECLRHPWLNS
T33 sequence (Q8IY84 whole entry): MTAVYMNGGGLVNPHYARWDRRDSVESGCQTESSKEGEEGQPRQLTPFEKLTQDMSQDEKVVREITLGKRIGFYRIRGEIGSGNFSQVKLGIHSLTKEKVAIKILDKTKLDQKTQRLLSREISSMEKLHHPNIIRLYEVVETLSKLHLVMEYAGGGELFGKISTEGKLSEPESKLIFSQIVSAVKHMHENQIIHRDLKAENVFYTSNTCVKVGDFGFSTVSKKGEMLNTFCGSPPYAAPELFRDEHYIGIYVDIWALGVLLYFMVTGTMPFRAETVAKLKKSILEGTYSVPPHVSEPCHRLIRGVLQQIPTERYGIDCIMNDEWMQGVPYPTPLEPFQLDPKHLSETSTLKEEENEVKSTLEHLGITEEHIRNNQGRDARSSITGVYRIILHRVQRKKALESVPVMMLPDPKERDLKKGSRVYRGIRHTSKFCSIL

With `C=CC(=O)N1CCC[C@@H](n2nc(-c3ccc(OCc4cccc(C)n4)c(Cl)c3)c3c(N)ncnc32)C1` [CHMFL-EGFR-26] as the molecule, how does the remaining binding at 1 µM (DMPK2) read?
The remaining binding at 1 µM was 28%.

What about the remaining binding at 1 µM (KIT(V559D,V654A)) of the same molecule?
Its remaining binding at 1 µM is 89%.

What about the remaining binding at 1 µM (BMPR1B) of the same molecule?
The remaining binding at 1 µM was 97%.

And the remaining binding at 1 µM (MET(Y1235D))?
The remaining binding at 1 µM was 55%.

What about the remaining binding at 1 µM (ERK3) of the same molecule?
The remaining binding at 1 µM was 100%.

And the remaining binding at 1 µM (ADCK3)?
The remaining binding at 1 µM was 100%.

What about the remaining binding at 1 µM (AKT1) of the same molecule?
Its remaining binding at 1 µM is 98%.

And the remaining binding at 1 µM (PFPK5(P.falciparum))?
The remaining binding at 1 µM was 100%.

What about the remaining binding at 1 µM (STK33) of the same molecule?
Its remaining binding at 1 µM is 100%.

And the remaining binding at 1 µM (TLK2)?
Its remaining binding at 1 µM is 80%.

What about the remaining binding at 1 µM (ICK) of the same molecule?
The remaining binding at 1 µM was 90%.

And the remaining binding at 1 µM (EPHB6)?
The remaining binding at 1 µM was 82%.

What about the remaining binding at 1 µM (PLK4) of the same molecule?
Its remaining binding at 1 µM is 99%.

And the remaining binding at 1 µM (CAMK2A)?
The remaining binding at 1 µM was 99%.

And the remaining binding at 1 µM (HIPK3)?
Its remaining binding at 1 µM is 100%.

And the remaining binding at 1 µM (EPHB3)?
The remaining binding at 1 µM was 100%.

And the remaining binding at 1 µM (RIPK4)?
Its remaining binding at 1 µM is 96%.

What about the remaining binding at 1 µM (EPHA3) of the same molecule?
Its remaining binding at 1 µM is 89%.

And the remaining binding at 1 µM (DDR1)?
The remaining binding at 1 µM was 85%.

And the remaining binding at 1 µM (FLT3-autoinhibited)?
The remaining binding at 1 µM was 99%.

And the remaining binding at 1 µM (ASK2)?
The remaining binding at 1 µM was 68%.

What about the remaining binding at 1 µM (CSNK2A2) of the same molecule?
The remaining binding at 1 µM was 91%.

What about the remaining binding at 1 µM [1] of the same molecule?
Its remaining binding at 1 µM is 10%.

What about the remaining binding at 1 µM [2] of the same molecule?
Its remaining binding at 1 µM is 83%.

What about the remaining binding at 1 µM (PFTK1) of the same molecule?
Its remaining binding at 1 µM is 100%.

And the remaining binding at 1 µM (TSSK3)?
Its remaining binding at 1 µM is 100%.

What about the remaining binding at 1 µM (MYO3B) of the same molecule?
Its remaining binding at 1 µM is 98%.

And the remaining binding at 1 µM (ACVR1)?
Its remaining binding at 1 µM is 96%.

And the remaining binding at 1 µM (MAPKAPK5)?
The remaining binding at 1 µM was 100%.

And the GI50 (CHL)?
The GI50 was over 10 µM.

What about the remaining binding at 1 µM (HIPK2) of the same molecule?
Its remaining binding at 1 µM is 100%.

And the remaining binding at 1 µM (SNARK)?
The remaining binding at 1 µM was 25%.

What about the remaining binding at 1 µM (KIT-autoinhibited) of the same molecule?
The remaining binding at 1 µM was 95%.

And the remaining binding at 1 µM (NIM1)?
Its remaining binding at 1 µM is 96%.

What about the remaining binding at 1 µM (LYN) of the same molecule?
The remaining binding at 1 µM was 94%.

And the remaining binding at 1 µM (CDKL3)?
The remaining binding at 1 µM was 97%.

And the remaining binding at 1 µM (CDK7)?
The remaining binding at 1 µM was 100%.

And the “% control” value (FLT3(ITD,F691L))?
The value was 100%.

What about the remaining binding at 1 µM (CAMK1D) of the same molecule?
The remaining binding at 1 µM was 91%.

And the remaining binding at 1 µM (YES)?
Its remaining binding at 1 µM is 65%.

What about the remaining binding at 1 µM (SRPK1) of the same molecule?
Its remaining binding at 1 µM is 100%.

And the remaining binding at 1 µM (HASPIN)?
The remaining binding at 1 µM was 100%.

And the remaining binding at 1 µM (CSNK1A1L)?
The remaining binding at 1 µM was 91%.
